Experimental data reported in the supplement of paper PMC10307832.

Key:
Experiment in all cases: relative viability (nuclei count vs DMSO), 5 days (fraction); higher = more cells survive
[1] = compound: C1CC1C(=O)NC2=NNC3=C2C=CC(=C3)C4=CC(=CC=C4)C(=O)NC5CC5 [XMD13-2] + Cc1nc(Nc2ncc(C(=O)Nc3c(C)cccc3Cl)s2)cc(N2CCN(CCO)CC2)n1 [Dasatinib] (partner 0.075 µM)
How it was run: (§1)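 Cells from lung cancer lines were seeded into 1536-well plates and, one day later, dosed by pin tool. Treatments were either a single drug or a fixed dose of an anchor drug with five library-drug doses (not always all listed) in √10 steps. After 5 days, nuclei were stained in a one-step fixation (final 0.05% Triton X-100, 1% formaldehyde, 1 ug/ml Hoechst) and counted on 4× images, and relative viability is the treated-to-vehicle nuclei ratio, as the median of duplicate plates.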

[2] = compound: Cc1ccc(C(=O)Nc2cccc(C(F)(F)F)c2)cc1Nc1cncc(C(N)=O)c1 [ALW-II-49-7] + Cc1nc(NC(=O)N2CCC[C@H]2C(N)=O)sc1-c1ccnc(C(C)(C)C(F)(F)F)c1 [Alpelisib] (partner 2 µM)
How it was run: as §1

[3] = compound: Cc1nc(Nc2ncc(C(=O)Nc3c(C)cccc3Cl)s2)cc(N2CCN(CCO)CC2)n1 [Dasatinib] + CCNC(=O)c1noc(-c2cc(C(C)C)c(O)cc2O)c1-c1ccc(CN2CCOCC2)cc1 [Luminespib] (partner 0.01 µM)
How it was run: as §1

[4] = compound: Cc1nc(Nc2ncc(C(=O)Nc3c(C)cccc3Cl)s2)cc(N2CCN(CCO)CC2)n1 [Dasatinib] + Nc1ncn([C@H]2C[C@H](O)[C@@H](CO)O2)c(=O)n1 [Decitabine] (partner 2 µM)
How it was run: as §1

Row | Cell Line | relative viability ([1]; first compound 0.05 µM) | relative viability ([1]; first compound 0.1581 µM) | relative viability ([1]; first compound 0.5 µM) | relative viability ([1]; first compound 1.581 µM) | relative viability ([1]; first compound 5 µM) | relative viability ([2]; first compound 0.08 µM) | relative viability ([2]; first compound 0.253 µM) | relative viability ([2]; first compound 0.8 µM) | relative viability ([2]; first compound 2.53 µM) | relative viability ([2]; first compound 8 µM) | relative viability ([3]; first compound 0.005 µM) | relative viability ([3]; first compound 0.01581 µM) | relative viability ([3]; first compound 0.05 µM) | relative viability ([3]; first compound 0.1581 µM) | relative viability ([3]; first compound 0.5 µM) | relative viability ([4]; first compound 0.005 µM) | relative viability ([4]; first compound 0.01581 µM) | relative viability ([4]; first compound 0.05 µM) | relative viability ([4]; first compound 0.1581 µM) | relative viability ([4]; first compound 0.5 µM)
1 | CAL-12T | 0.497 | 0.402 | 0.405 | 0.396 | 0.409 | 1.26 | 1.14 | 1.2 | 1.21 | 1.26 | 0.794 | 0.374 | 0.334 | 0.129 | 0.072 | – | – | – | – | –
2 | NCI-H727 | 0.383 | 0.344 | 0.38 | 0.478 | 0.426 | 0.716 | 0.572 | 0.538 | 0.678 | 0.541 | 0.255 | 0.425 | 0.334 | 0.237 | 0.244 | 0.818 | 0.7 | 0.742 | 0.718 | 0.295
3 | ABC-1 | 0.53 | 0.542 | 0.599 | 0.51 | 0.426 | 0.945 | 0.937 | 1.06 | 0.967 | 0.973 | 0.562 | 0.52 | 0.314 | 0.411 | 0.293 | 1.31 | 0.953 | 1.18 | 1.06 | 0.975
4 | NCI-H2023 | 0.806 | 0.545 | 0.688 | 0.559 | 0.64 | 0.66 | 0.575 | 0.657 | 0.641 | 0.677 | 0.646 | 0.669 | 0.599 | 0.518 | 0.507 | 0.262 | 0.226 | 0.216 | 0.214 | 0.209
